Data from US20220340983A1, “SYSTEMS AND ASSAYS FOR IDENTIFYING PU.1 INHIBITORS” (Massachustts Institute of Technology, priority 2019, published 2022).

Key:
[1] = tested on: PU.1 dependent gene expression; experiment: RT-qPCR of mRNA levels in BV2 PU.1-Luciferase cells (validation round 3); type: cell-based, mouse; conditions: 2-day treatment
Method: The Asinex1 and ChemDiv6 libraries contain molecules with unknown biological properties, but with low toxicity, high stability, and a broad structural diversity used to generate structure-activity-relationships (SAR) of the PU.1 inhibitors. […] In order to obtain the SAR, three rounds of validation were performed. In round 1, false-positive, non-specific luciferase quencher molecules were excluded using the commercially available HEK293 CMV-Luciferase line that constitutively expresses luciferase under the CMV promoter. In round 2, weak (non-significant) hits were eliminated according to degree of PU.1 inhibition in the absence of cell death. In round 3, drugs were selected that reduce PU.1-dependent gene expression with RT-qPCR.

[2] = target: T1, PU.1 (Mus musculus, UniProt P17433); experiment: Luciferase assay (luminescence) in BV2 PU.1-Luciferase reporter cells; type: cell-based; conditions: luminescence reduction in BV2 PU.1-Luciferase cells, concentration-response, Hill's equation
T1 construct: endogenous in cells; host or cells: BV2 PU.1-Luciferase (mouse microglial BV2 with a 5xLBB-luciferase reporter integrated at ROSA26)
Text: PU.1 belongs to a group of transcription factors that all bind to the middle 5′-GGAA-3′ sequence. The flanking A/T rich sequence is crucial for conferring PU.1 selective binding. The flanking sequence requires unique structural properties of PU.1 and can therefore be targeted by drugs acting as allosteric inhibitors that prevent PU.1 from binding to the LBB. In order to achieve robust PU.1 binding, five tandem copies of the LBBs (5×LBB) were inserted into the luciferase promoter of the pGL4.23 plasmid. The region containing the five LBBs (5×LBB) was then subcloned into the pROSA26-1 plasmid (together with a PGKneo bpA plasmid for Neomycin/G418 resistance) that allows stable integration in chromosome 6 of the immortalized mouse microglial BV2 cell line (FIG. 2B). The stable cell line was created by selection with G418.
The BV2 PU.1-Luciferase cells (referred to as “cells” from here onward) were plated into a 384-well plate, using an automatic dispenser, 2000 cells per well in 30 μL of media composed of RPMI (Sigma-Aldrich), 10% FBS, 1% PenStrep (50 mg/mL) and 1% G418 (50 mg/mL) was plated. A robotic arm was used to transfer compounds in a 384-well format using a pin array into the plate containing the cells (here, 33 nL was transferred from a drug library containing 10 mM concentration of drugs for a final concentration of 10 μM per well). For reproducibility, each pin array with 384 compounds was added to 4 plates of cells. […] Subsequently, automatic of 30 μL of BrightGlo (Promega) was dispensed into 2 of the 4 plates, in order to lyse the cells and drive the luminescence reaction whereafter the luminescence intensity was measured by a plate reader (Perkin Elmer EnVision). The two other plates were fixed by automatically dispensing 30 μL of 10% formaldehyde with 2μL Hoechst per 1 mL formaldehyde which were left at room temperature for one hour, followed by plate reading (Acumen (TTPLabTech)). A compound transfer and treatment would be repeated if reproducibility between the luminescence plates and/or the fixed Hoechst plates was lacking. The drugs were selected and ranked according to the criteria described in FIG. 13. Luminescence values used were corrected for crosstalk. Hoechst values were total fluorescence area per well. Determination of a positive hit considered both the reduction of luminescence as well as a possible confounding reduction in cell viability. The formula used was y=(value−meanvalue)/stddev. […] Compounds were excluded if cell viability was reduced >2 standard deviations from the mean, using the same formula. The positive hits were then validated in multiple steps in order to identify true PU.1 inhibitors.
The degree of luminescence reduction of the hits was plotted with significant effective area under the curve in order to obtain an IC50.

Compound	IC50 [2]	mRNA levels Apoe [1]	mRNA levels IL1β [1]	mRNA levels Lucif. [1]	mRNA levels Spi1 [1]	mRNA levels Trem2 [1]	mRNA levels Tyrobp [1]
C[C@H]1C[C@H]2[C@@H]3CCC4=CC(=O)C=C[C@]4(C)[C@@]3(F)[C@@H](O)C[C@]2(C)[C@@]1(O)C(=O)CO [Betamethasone, reference compound]		1.615 multiples of 1×	0.379 multiples of 1×		1.235 multiples of 1×	1.137 multiples of 1×	1.079 multiples of 1×
CCn1c(=O)c2cc(C(=O)Nc3cc(OC)c(OC)c(OC)c3)sc2c2ccccc21 [Compound 1G9]	2290 nM	1.217 multiples of 1×	0.582 multiples of 1×	0.485 multiples of 1×	0.989 multiples of 1×	0.713 multiples of 1×	1.053 multiples of 1×
Cn1nc(CC(=O)Nc2ccc(N3CCN(C(=O)OC(C)(C)C)CC3)cc2)c2ccccc2c1=O [Compound D06]	25 nM	1.233 multiples of 1×	0.590 multiples of 1×	0.153 multiples of 1×	1.030 multiples of 1×	1.510 multiples of 1×	1.374 multiples of 1×
C[C@]12CCC(=O)C=C1CC[C@H]1[C@@H]3CC[C@](O)(C(=O)CO)[C@@]3(C)C[C@H](O)[C@@]12F [Fludrocortisone, reference compound]		1.493 multiples of 1×	1.764 multiples of 1×	1.171 multiples of 1×	0.900 multiples of 1×	0.895 multiples of 1×	1.082 multiples of 1×
Cc1ccc(C(=O)Nc2nnc(SCc3cc(=O)c4c(C)ccc(C)c4[nH]3)s2)cc1 [Compound 2E7]	8050 nM	1.076 multiples of 1×	0.887 multiples of 1×	0.623 multiples of 1×	0.926 multiples of 1×	0.854 multiples of 1×	0.927 multiples of 1×
CCOc1ccc(S(=O)(=O)Nc2ccc3c(c2)c(C(C)=O)c(C)n3S(=O)(=O)c2ccc(OCC)cc2)cc1 [Compound 1A5]	2930 nM	1.200 multiples of 1×	0.707 multiples of 1×	0.371 multiples of 1×	0.982 multiples of 1×	1.085 multiples of 1×	1.117 multiples of 1×
COc1cc(NS(=O)(=O)c2ccc3c(c2)CCN3S(C)(=O)=O)cc(OC)c1 [Compound 2F5]	3540 nM	0.790 multiples of 1×	0.767 multiples of 1×	0.590 multiples of 1×	0.783 multiples of 1×	0.901 multiples of 1×	0.985 multiples of 1×
CC(C)(C)OC(=O)N1CCC(c2c(C(=O)Nc3ccc4c(c3)OCCO4)cnn2-c2ccccc2)CC1 [Compound 2C12]	2930 nM	0.731 multiples of 1×	0.486 multiples of 1×	0.597 multiples of 1×	0.736 multiples of 1×	0.752 multiples of 1×	0.713 multiples of 1×
Cc1cccc(Cn2cccc(C(=O)Nc3nc4ccccc4s3)c2=O)c1 [Compound 2F11]	303 nM	1.005 multiples of 1×	1.086 multiples of 1×	0.640 multiples of 1×	0.943 multiples of 1×	1.012 multiples of 1×	1.002 multiples of 1×
C[C@@H]1C[C@H]2[C@@H]3CCC4=CC(=O)C=C[C@]4(C)[C@@]3(F)[C@@H](O)C[C@]2(C)[C@@]1(O)C(=O)CO [Dexamethasone, reference compound]		1.325 multiples of 1×	1.041 multiples of 1×	0.373 multiples of 1×	0.955 multiples of 1×	0.751 multiples of 1×	1.010 multiples of 1×

Now from value to compound, other results behind:

IC50 [2]	Compound	mRNA levels Apoe [1]	mRNA levels IL1β [1]	mRNA levels Lucif. [1]	mRNA levels Spi1 [1]	mRNA levels Trem2 [1]	mRNA levels Tyrobp [1]
338 nM	COc1cc(NS(=O)(=O)c2ccc3c(c2)CC(C)N3C(=O)C2CCC2)cc(OC)c1OC (stereo not shown) [Compound 2C3]	1.133 multiples of 1×	1.043 multiples of 1×	0.430 multiples of 1×	0.946 multiples of 1×	1.179 multiples of 1×	1.127 multiples of 1×
2370 nM	CCOC(=O)c1oc2ccc(S(=O)(=O)n3nc(-c4ccccc4OC)cc3N)cc2c1C [Compound 1H7]	0.908 multiples of 1×	1.017 multiples of 1×	0.524 multiples of 1×	1.022 multiples of 1×	1.100 multiples of 1×	1.011 multiples of 1×
3 nM	CCOC(=O)O[C@]1(C(=O)OCCl)CC[C@H]2[C@@H]3CCC4=CC(=O)C=C[C@]4(C)[C@H]3[C@@H](O)C[C@@]21C [Loteprednol, reference compound]	1.579 multiples of 1×	0.805 multiples of 1×	0.265 multiples of 1×	1.167 multiples of 1×	0.979 multiples of 1×	0.927 multiples of 1×
136 nM	CCOC(=O)Cn1c(=O)n(C2CCCCC2)c2nc(-c3cccc(F)c3)nc(C(N)=O)c21 [Compound 2E4]	0.841 multiples of 1×	1.077 multiples of 1×	0.404 multiples of 1×	1.377 multiples of 1×	0.806 multiples of 1×	1.141 multiples of 1×
